Assay: xn = mol fraction of the nth substance listed
Conditions: 101 kPa, Liquid

CCCCCCCC[n+]1ccn(C)c1.F[P-](F)(F)(F)(F)F [1-octyl-3-methylimidazolium hexafluorophosphate] + CCOC(C)=O
Conditions	mass density [kg/m3]	speed of sound [m/s]
293.15 K, x1 = 0.1056	992.13	1246.8
293.15 K, x1 = 0.2064	1052.79	1300.8
293.15 K, x1 = 0.308	1097.25	1323
293.15 K, x1 = 0.4094	1130.77	1339
293.15 K, x1 = 0.4991	1154.21	1349
293.15 K, x1 = 0.5916	1174.12	1356.8
293.15 K, x1 = 0.694	1192.49	1363.1
293.15 K, x1 = 0.8121	1210.2	1368.1
293.15 K, x1 = 0.8895	1220.31	1374.2
293.15 K, x1 = 1	1222.81	1388.2
298.15 K, x1 = 0.1056	987.426	1228.2
298.15 K, x1 = 0.2064	1048.5	1284.8
298.15 K, x1 = 0.308	1093.04	1303.4
298.15 K, x1 = 0.4094	1126.53	1325
298.15 K, x1 = 0.4991	1150	1335.1
298.15 K, x1 = 0.5916	1169.99	1342.7
298.15 K, x1 = 0.694	1188.53	1348.9
298.15 K, x1 = 0.8121	1206.48	1353.8
298.15 K, x1 = 0.8895	1216.63	1358.3
298.15 K, x1 = 1	1218.9	1373.4
303.15 K, x1 = 0.1056	982.485	1209.8
303.15 K, x1 = 0.2064	1044	1268.9
303.15 K, x1 = 0.308	1088.65	1288.2
303.15 K, x1 = 0.4094	1122.2	1309
303.15 K, x1 = 0.4991	1145.83	1320.9
303.15 K, x1 = 0.5916	1166.01	1328.6
303.15 K, x1 = 0.694	1184.79	1334.7
303.15 K, x1 = 0.8121	1202.87	1339.7
303.15 K, x1 = 0.8895	1212.97	1345.2
303.15 K, x1 = 1	1214.96	1359.3
308.15 K, x1 = 0.1056	977.389	1191.5
308.15 K, x1 = 0.2064	1039.34	1253
308.15 K, x1 = 0.308	1084.23	1273.5
308.15 K, x1 = 0.4094	1117.99	1298
308.15 K, x1 = 0.4991	1141.76	1306.3
308.15 K, x1 = 0.5916	1162.11	1314.2
308.15 K, x1 = 0.694	1180.99	1320.5
308.15 K, x1 = 0.8121	1199.1	1325.6
308.15 K, x1 = 0.8895	1209.17	1331.3
308.15 K, x1 = 1	1211.13	1345.8
313.15 K, x1 = 0.1056	972.526	1173.3
313.15 K, x1 = 0.2064	1034.74	1237.5
313.15 K, x1 = 0.308	1079.71	1258.3
313.15 K, x1 = 0.4094	1113.66	1282
313.15 K, x1 = 0.4991	1137.66	1292.8
313.15 K, x1 = 0.5916	1158.28	1300.8
313.15 K, x1 = 0.694	1177.41	1307.2
313.15 K, x1 = 0.8121	1195.57	1312.3
313.15 K, x1 = 0.8895	1205.55	1318.4
313.15 K, x1 = 1	1207.33	1332.7
318.15 K, x1 = 0.1056	967.143	1155.2
318.15 K, x1 = 0.2064	1029.94	1222.1
318.15 K, x1 = 0.308	1075.23	1243.5
318.15 K, x1 = 0.4094	1109.39	1268
318.15 K, x1 = 0.4991	1133.54	1279.3
318.15 K, x1 = 0.5916	1154.33	1287.5
318.15 K, x1 = 0.694	1173.67	1294
318.15 K, x1 = 0.8121	1192.1	1299.2
318.15 K, x1 = 0.8895	1202.11	1305.2
318.15 K, x1 = 1	1203.5	1320.1
323.15 K, x1 = 0.1056	962.069	1132.4
323.15 K, x1 = 0.2064	1025.26	1206.9
323.15 K, x1 = 0.308	1070.7	1229.1
323.15 K, x1 = 0.4094	1105.03	1250
323.15 K, x1 = 0.4991	1129.38	1265.9
323.15 K, x1 = 0.5916	1150.44	1274.2
323.15 K, x1 = 0.694	1170.05	1280.9
323.15 K, x1 = 0.8121	1188.56	1286.3
323.15 K, x1 = 0.8895	1198.5	1292.2
323.15 K, x1 = 1	1199.67	1307.7

CCCCCCn1cc[n+](C)c1.F[P-](F)(F)(F)(F)F [1-hexyl-3-methylimidazolium hexafluorophosphate] + CCCCOC(C)=O
Conditions	mass density, Vibrating tube method [kg/m3]	speed of sound, Sing-around technique in a fixed-path interferometer [m/s]
293.15 K, x1 = 0.0956	951.75	1232
293.15 K, x1 = 0.1919	1012.58	1254.6
293.15 K, x1 = 0.273	1056.82	1279.1
293.15 K, x1 = 0.3698	1103.12	1306.9
293.15 K, x1 = 0.4639	1141.87	1329.4
293.15 K, x1 = 0.5701	1179.57	1354.2
293.15 K, x1 = 0.6787	1213.07	1375.9
293.15 K, x1 = 0.7746	1239.19	1395
293.15 K, x1 = 0.8707	1262.73	1412
293.15 K, x1 = 0.9354	1277.66	1425
293.15 K, x1 = 1	1291.38	1436.9
298.15 K, x1 = 0.0956	947.32	1211.1
298.15 K, x1 = 0.1919	1008.36	1234
298.15 K, x1 = 0.273	1052.6	1258.9
298.15 K, x1 = 0.3698	1098.76	1286.7
298.15 K, x1 = 0.4639	1137.51	1309.5
298.15 K, x1 = 0.5701	1175.41	1334.8
298.15 K, x1 = 0.6787	1209.24	1357.2
298.15 K, x1 = 0.7746	1235.56	1377.6
298.15 K, x1 = 0.8707	1259.27	1395.9
298.15 K, x1 = 0.9354	1273.93	1409.2
298.15 K, x1 = 1	1287.34	1423.5
303.15 K, x1 = 0.0956	942.923	1190.1
303.15 K, x1 = 0.1919	1004.08	1212.6
303.15 K, x1 = 0.273	1048.36	1237.4
303.15 K, x1 = 0.3698	1094.3	1265.2
303.15 K, x1 = 0.4639	1133.2	1289.9
303.15 K, x1 = 0.5701	1171.25	1317.5
303.15 K, x1 = 0.6787	1205.24	1342.6
303.15 K, x1 = 0.7746	1231.69	1360.1
303.15 K, x1 = 0.8707	1255.4	1382.6
303.15 K, x1 = 0.9354	1270.13	1397.1
303.15 K, x1 = 1	1283.29	1410.6
308.15 K, x1 = 0.0956	938.4	1170.2
308.15 K, x1 = 0.1919	999.626	1195.2
308.15 K, x1 = 0.273	1043.86	1223.8
308.15 K, x1 = 0.3698	1089.96	1252.4
308.15 K, x1 = 0.4639	1128.94	1282.6
308.15 K, x1 = 0.5701	1167.43	1309.4
308.15 K, x1 = 0.6787	1201.36	1335.2
308.15 K, x1 = 0.7746	1227.89	1354.9
308.15 K, x1 = 0.8707	1251.38	1369.7
308.15 K, x1 = 0.9354	1265.98	1384.4
308.15 K, x1 = 1	1279.4	1398.2
313.15 K, x1 = 0.0956	933.877	1150.1
313.15 K, x1 = 0.1919	995.525	1177
313.15 K, x1 = 0.273	1039.84	1206.8
313.15 K, x1 = 0.3698	1085.95	1236.5
313.15 K, x1 = 0.4639	1124.72	1267.5
313.15 K, x1 = 0.5701	1163.39	1295.4
313.15 K, x1 = 0.6787	1197.76	1321.8
313.15 K, x1 = 0.7746	1224.59	1341.9
313.15 K, x1 = 0.8707	1248.25	1356.9
313.15 K, x1 = 0.9354	1262.68	1372
313.15 K, x1 = 1	1275.48	1386
318.15 K, x1 = 0.0956	929.385	1130.3
318.15 K, x1 = 0.1919	991.164	1158.8
318.15 K, x1 = 0.273	1035.44	1189.8
318.15 K, x1 = 0.3698	1081.67	1220.7
318.15 K, x1 = 0.4639	1120.61	1252.5
318.15 K, x1 = 0.5701	1159.18	1280.7
318.15 K, x1 = 0.6787	1193.95	1308.5
318.15 K, x1 = 0.7746	1221	1329
318.15 K, x1 = 0.8707	1244.79	1344.4
318.15 K, x1 = 0.9354	1258.89	1359.8
318.15 K, x1 = 1	1271.56	1374.2
323.15 K, x1 = 0.0956	924.824	1110.4
323.15 K, x1 = 0.1919	986.823	1140.8
323.15 K, x1 = 0.273	1031.16	1172.9
323.15 K, x1 = 0.3698	1077.6	1205.1
323.15 K, x1 = 0.4639	1116.43	1237.1
323.15 K, x1 = 0.5701	1155.28	1267
323.15 K, x1 = 0.6787	1190.27	1295.7
323.15 K, x1 = 0.7746	1217.39	1316.4
323.15 K, x1 = 0.8707	1241.1	1332.1
323.15 K, x1 = 0.9354	1255.1	1347.8
323.15 K, x1 = 1	1267.63	1362.5

— the NIST ThermoML archive (doi:10.1016/j.jct.2014.01.012)
